The numbers were not newly measured in patent publication US20110105449A1, “DRY POWDER FORMULATIONS COMPRISING ASCORBIC ACID DERIVATES” (ASTRAZENECA R&D, priority 2007, published 2011), which cites them from elsewhere.

In brackets after ≈: the same amount, converted by molar mass.

The conditions of the series: at 25° C.

In the case of `CCCC1O[C@@H]2C[C@H]3[C@@H]4CCC5=CC(=O)C=C[C@]5(C)[C@H]4[C@@H](O)C[C@]3(C)[C@]2(C(=O)CO)O1` (stereo partly shown) [Budesonide, budesonide], the water solubility was 16 µg/mL (≈ 37.2 µM).
